In this experiment the target is human TYK2 (JH2domain-pseudokinase) (Homo sapiens (Human), UniProt P29597). As to the kind of experiment: TYK2 JH2 Domain Binding Assay (KINOMEscan, DiscoveRx). The settings on record: 11-point dilution, duplicate. The gist of the method: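 TYK2 JH2 (G556–D888)–NFkB DBD fusion, DNA-tagged, from HEK293 extracts (<0.1 nM) competed against immobilised biotinylated ligand for 1 h at room temperature, 0.9% DMSO. Bead-retained kinase quantified by qPCR; Kd from 11-point 3-fold series (top 30,000 nM, duplicate), Hill fit with slope −1.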
Chain of human TYK2 (JH2domain-pseudokinase) (P29597 556-888): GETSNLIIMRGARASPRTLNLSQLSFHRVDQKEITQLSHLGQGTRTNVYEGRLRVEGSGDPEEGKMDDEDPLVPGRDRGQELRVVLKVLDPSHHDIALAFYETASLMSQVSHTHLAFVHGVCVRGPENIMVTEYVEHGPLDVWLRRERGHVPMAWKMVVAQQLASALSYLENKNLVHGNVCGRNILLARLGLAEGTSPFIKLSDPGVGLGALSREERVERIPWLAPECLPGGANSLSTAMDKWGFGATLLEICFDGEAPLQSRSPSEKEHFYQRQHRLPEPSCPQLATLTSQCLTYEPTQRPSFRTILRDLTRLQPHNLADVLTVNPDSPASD
As usually defined, the Kd is a measure of binding affinity in units of concentration. The low end stands for tighter binding, the high end for weaker binding. For `COc1c(Nc2cc(Nc3ccc(C)nn3)nc3[nH]c(C)nc23)cccc1-c1nnn(C)n1` [I-100, N-7-(2-methoxy-3-(2-methyl-2H-tetrazol-5-yl)phenyl)-2-methyl-N5-(6-methylpyridazin-3-yl)-3H-imidazo[4,5-b]pyridine-5,7-diamine], the Kd fell in the range of 0.1 to 0.5 nM.

With `COc1c(Nc2cc(Nc3ccc(C)cn3)nc3[nH]c(C)nc23)cccc1-c1nnn(C)n1` [I-101, N7-(2-methoxy-3-(2-methyl-2H-tetrazol-5-yl)phenyl)-2-methyl-N5-(5-methylpyridin-2-yl)-3H-imidazo[4,5-b]pyridine-5,7-diamine], the Kd fell in the range of 1 to 10 nM.

`COc1c(Cl)cccc1Nc1cc(NC(=O)C2CC2)nc2[nH]c(C)nc12` [I-103, N-(7-((3-chloro-2-methoxyphenyl)amino)-2-methyl-3H-imidazo[4,5-b]pyridin-5-yl)cyclopropanecarboxamide] had a Kd above 10 nM.

Take `COc1c(F)cccc1Nc1cc(NC(=O)C2CC2)nc2[nH]c(C)nc12` [I-104, N-(7-((3-fluoro-2-methoxyphenyl)amino)-2-methyl-3H-imidazo[4,5-b]pyridin-5-yl)cyclopropanecarboxamide]: the Kd is above 10 nM.

`COc1c(C#N)cccc1Nc1cc(NC(=O)C2CC2)nc2[nH]c(C)nc12` [I-105, N-(7-((3-cyano-2-methoxyphenyl)amino)-2-methyl-3H-imidazo[4,5-b]pyridin-5-yl)cyclopropanecarboxamide] gave a dissociation constant (Kd) above 10 nM.

Compound `COc1ccccc1Nc1cc(NC(=O)C2CC2)nc2[nH]c(C)nc12` [I-106, N-(7-((2-methoxyphenyl)amino)-2-methyl-3H-imidazo[4,5-b]pyridin-5-yl)cyclopropanecarboxamide] had a dissociation constant Kd above 10 nM.

`COc1c(Nc2cc(NC(=O)C3CC3)nc3[nH]c(C)nc23)cccc1-c1cnn(C)c1` [I-107, N-(7-((2-methoxy-3-(1-methyl-1H-pyrazol-4-yl)phenyl)amino)-2-methyl-3H-imidazo[4,5-b]pyridin-5-yl)cyclopropanecarboxamide] came in with a Kd of 1 to 10 nM.

The compound `COc1c(Nc2cc(Nc3ccc(C(=O)N4CCCC4)c(C(F)(F)F)n3)nc3[nH]c(C)nc23)cccc1-c1nnn(C)n1` [I-108, (6-((7-((2-methoxy-3-(2-methyl-2H-tetrazol-5-yl)phenyl)amino)-2-methyl-3H-imidazo[4,5-b]pyridin-5-yl)amino)-2-(trifluoromethyl)pyridin-3-yl)(pyrrolidin-1-yl)methanone] showed a Kd of 0.1 to 0.5 nM.

Turning to `COc1c(Nc2cc(Nc3ccc(N4CCCC4=O)c(C#N)n3)nc3[nH]c(C)nc23)cccc1-c1nnn(C)n1` [I-109, 6-((7-((2-methoxy-3-(2-methyl-2H-tetrazol-5-yl)phenyl)amino)-2-methyl-3H-imidazo[4,5-b]pyridin-5-yl)amino)-3-(2-oxopyrrolidin-1-yl)picolinonitrile], the Kd lay within 0.1 to 0.5 nM.

`COc1cc(C(=O)N2CCCC2)ccc1Nc1cc(NC(=O)C2CC2)nc2[nH]c(C)nc12` [I-110, N-(7-((2-methoxy-4-(pyrrolidine-1-carbonyl)phenyl)amino)-2-methyl-3H-imidazo[4,5-b]pyridin-5-yl)cyclopropanecarboxamide]: the Kd was in the range of 1 to 10 nM.

`COc1c(Nc2cc(Nc3cnc(C)c(C#N)n3)nc3[nH]c(C)nc23)cccc1-c1nnn(C)n1` [I-111, 6-((7-((2-methoxy-3-(2-methyl-2H-tetrazol-5-yl)phenyl)amino)-2-methyl-3H-imidazo[4,5-b]pyridin-5-yl)amino)-3-methylpyrazine-2-carbonitrile]: the equilibrium dissociation constant (Kd) lay within 1 to 10 nM.

`COc1c(Nc2cc(Nc3ccc(N4CC[C@H](OC)C4)c(C#N)n3)nc3[nH]c(C)nc23)cccc1-c1nnn(C)n1` [I-112, (S)-6-((7-((2-methoxy-3-(2-methyl-2H-tetrazol-5-yl)phenyl)amino)-2-methyl-3H-imidazo[4,5-b]pyridin-5-yl)amino)-3-(3-methoxypyrrolidin-1-yl)picolinonitrile] had a Kd of 0.1 to 0.5 nM.

The values above are taken from US10647713B2 (Nimbus Lakshmi, Inc., priority 2016, dated 2020).
